How the values were obtained:
Format in all cases: cell-based, Escherichia coli
E. coli C = assay: Bacterial growth curves in liquid culture (OD630); settings: for effect on bacterial growth (growth curves): liquid culture, 30, 20, 10 and 5 μg/mL, OD630, 18 h, FIG. 2
Protocol: The bacterial strain of Escherichia coli strain C was used as the model organism for initial screening. A Luria-Bertani (LB-Miller) medium was used as the full medium. Once the biofilms were grown, compounds S3-[…] and S3-G1B were tested for their ability to degrade and inhibit biofilm growth. […] This is likely due to the fact that the stringent response and RelA are not active when the cells are initially grown. Bacterial Growth-The effect of different compounds on bacterial growth was tested by adding compounds at specific concentrations to the bacterial culture (100× diluted overnight culture approx. 10^9 cells) in fresh LB medium. Two hundred microliters were aliquoted into a 96 well plate and placed into Biotek HT plate reader for 18 h at 37° C. Plates were shaken and the optical density (OD630) was measured every 15 min. Antibiotic Susceptibility Test-The antibiotic susceptibility was tested. For the liquid cultures, the minimum inhibitory concentrations (MICs) of the antimicrobial drugs were determined using 96 well plates and the broth dilution method. Suspensions were then incubated at 37° C. for 18 hours in the Biotek HT plate reader (see bacterial growth). For biofilm, the Biofilm Destruction Test discussed below was used with different antibiotic concentrations and the cell density was measured after 18 h. Bacterial concentration was calculated through optical density (OD630), and the lowest concentration causing 80% growth inhibition relative to the growth of the control was deemed to be the MIC. In order to test the effect of compounds on bacterial growth, liquid culture experiments were performed. The S3-[…] compound (hereinafter “compound A”) and S3-G1B compound (hereinafter “compound B”) were applied to the bacterial cultures at the concentrations of 30, 20, 10 and 5 μg/mL. The differences in bacterial growth curves in liquid cultures fortified with the test compounds were measured. The Escherichia coli strain C is sensitive to all types of antibiotics. To test the MIC of ampicillin, a standard growth curve experiment was run with different concentrations of antibiotics. […] Inoculum at 1000× dilution of overnight culture.

E. Coli biofilms = assay: Synergistic effect of compounds combined with ampicillin on biofilm; settings: in conjunction with ampicillin, FIG. 8
Protocol: The synergistic effect of compounds combined with antibiotics was tested. Biofilms were grown for 24, 48 or 72 h as described above. After that time planktonic cells were removed, and biofilms were washed twice with 250 μL of sterile phosphate buffered saline (PBS) solution. Two hundred microliters of fresh LB medium with specific concentration of the tested compounds and Ampicillin were dispensed into wells. After 18 h incubation at 37° C., the amount of biofilm was measured by CV staining as described above. For alamarBlue viability test, 4 μL of alamarBlue (Invitrogen) was added and plates were incubated in the Biotek HT plate reader at 37° C. for 4 h. Cell viability was measured as fluorescence at 530/590 nm (excitation/emission) versus compound concentration or initial cell density.
FIG. 8 highlights some of the data collected. […] As a positive control in these experiments IDR-1018 was utilized. IDR-1018 is a non-druggable antibiofilm peptide. IDR 1018 is a known biofilm disruptor that directly acts and degrades (p)ppGpp in cells (de la Fuente-Núñez 2014).

[1] = test system: E. coli C biofilm formation; assay: Biofilm Inhibition Test (crystal violet, OD570/OD600); settings: for effect on biofilm formation (crystal violet): 20 μg/mL
Protocol: Biofilm Inhibition Test—The biofilm inhibition was analyzed. For biofilm formation on a polystyrene surface, flat-bottom 96-well microtiter plates (Corning Inc.) were used. The effect of different compounds on biofilm formation was tested by adding compounds at specific concentrations to the bacterial culture (100× diluted overnight culture approx. 10^9 cells) in fresh LB medium. Two hundred microliters were aliquoted into 96 well plate and placed for 24 or 48 h into 37° C. incubator. Cell density was measured (OD600) using a Multiscan Go plate reader (ThermoFisher), and 30 μL of Gram crystal violet (Remel-3 g CV, 50 mL isopropanol, 50 mL ethanol and 900 mL of purified water) was applied for staining for 1 h. Plates were washed with water and air dried, and crystal violet was solubilized with an ethanol-acetone (4:1) solution. The OD570 was determined from this solution, and the biofilm amount was calculated as the ratio of OD570 to OD600. In order to check the effect of small molecules on biofilm formation, a biofilm inhibition experiment was designed. Compounds A and B were tested at concentration 20 μg/mL. The Innate defense regulator peptide-1018 (IDR-1018) (10 μg/mL) and serine hydroxamate (1 μg/mL) were also included.

E. coli C biofilm = assay: Biofilm Destruction Test (biofilm persistence, crystal violet); settings: for effect on biofilm persistence / survival: two days biofilms, FIG. 6; for increase in biofilm persistence: 2 days old biofilm, 18 h, FIG. 7
Protocol: Biofilm Destruction Test—The biofilm destruction was determined. Biofilms were grown for 24 or 48 h as described above. After that time planktonic cells were removed, and biofilms were washed twice with 250 μL of sterile phosphate buffered saline (PBS) solution. Two hundred microliters of fresh LB medium with specific concentration of the tested compounds were dispensed into wells. After 18 h incubation at 37° C., the amount of biofilm was measured by CV staining as described above.
The effect of small molecules on biofilm persistence was tested. Two days biofilms were treated with compounds A and B as well as IDR-1018 and serine hydroxamate.
As described above, antibiotics affect bacterial cell survival in biofilms. Thus, the effect of antibiotic on biofilm persistence was tested. Ampicillin was applied on 2 days old biofilm and the amount of biofilm was analyzed after 18 h.

[2] = test system: E. coli C cells in biofilm; assay: Antibiotic susceptibility of cells in biofilm (cell density after 18 h treatment); settings: 18 h treatment of 2-day biofilm
Protocol: Antibiotic Susceptibility Test—The antibiotic susceptibility was tested. For the liquid cultures, the minimum inhibitory concentrations (MICs) of the antimicrobial drugs were determined using 96 well plates and the broth dilution method. Suspensions were then incubated at 37° C. for 18 hours in the Biotek HT plate reader (see bacterial growth). For biofilm, the Biofilm Destruction Test discussed below was used with different antibiotic concentrations and the cell density was measured after 18 h. Bacterial concentration was calculated through optical density (OD630), and the lowest concentration causing 80% growth inhibition relative to the growth of the control was deemed to be the MIC. Biofilm Destruction Test—The biofilm destruction was determined. Biofilms were grown for 24 or 48 h as described above. After that time planktonic cells were removed, and biofilms were washed twice with 250 μL of sterile phosphate buffered saline (PBS) solution. Two hundred microliters of fresh LB medium with specific concentration of the tested compounds were dispensed into wells. After 18 h incubation at 37° C., the amount of biofilm was measured by CV staining as described above. As cells in the biofilm tend to be more resistant to antibiotics, similar ampicillin concentration was tested to check the effect of 18 h antibiotic treatment on 2-day biofilm growth. […] At 40 μg/mL, a decrease in cell growth was observed of 15%. Starting from 50 μg/mL the cell density was reduced from 53% to 5% (at 90 μg/mL) of the untreated control.

Compound	effect on bacterial growth (growth curves) (E. coli C)	biofilm concentration compared to biofilms treated with just antibiotics (E. Coli biofilms)	biofilm degradation compared with positive control IDR-1018 (E. Coli biofilms)	effect on the initial growth of biofilms [1]	effect on biofilm formation (crystal violet) ([1]; FIG. 5B)	effect on biofilm persistence / survival (E. coli C biofilm)	other results
O=C(N[C@H](C(=O)O)c1ccc(Cl)cc1)c1cc(-c2ccc(O)cc2)n[nH]1 [Compound S3-G1A, (4-chlorophenyl)([(3-(4-hydroxyphenyl)-1H-pyrazol-5-yl]carbonyl)amino)acetic acid]	Neither compound showed any effect	decreasing the biofilm concentration significantly	outperform IDR-1018	did not show any effect	slight increase	no significant effect	effect on bacterial growth (growth curves) (E. coli C; listed as A): no effect
CCCNc1ncc(-c2cc(-c3cc(C(=O)O)[nH]n3)nc(N)c2C#N)cn1 [Compound S3-G1B]	Neither compound showed any effect	decreasing the biofilm concentration significantly	outperform IDR-1018	did not show any effect	slight increase	no significant effect	effect on bacterial growth (growth curves) (E. coli C; listed as B): no effect
NC(CO)C(=O)NO (stereo not drawn) [Serine hydroxamate, serine hydroxamate, reference compound]	–	–	–	–	–	–	effect in biofilm inhibition experiment ([1]; 1 μg/mL, 24 h experiment): did not show any effect
CC1(C)S[C@@H]2[C@H](NC(=O)[C@H](N)c3ccccc3)C(=O)N2[C@H]1C(=O)O [ampicillin]	–	–	–	–	–	–	effect on planktonic growth curve (E. coli C; low ampicillin concentrations, FIG. 3): bacteriostatic effect with a prolonged lag phase; decrease in cell growth ([2]; 40 μg/mL): 15%; cell density, % of the untreated control ([2]; 50 μg/mL): 53%; cell density, % of the untreated control ([2]; 90 μg/mL): 5%; increase in biofilm persistence (E. coli C biofilm; Amp 10 (10 μg/mL)): 1.7 fold; increase in biofilm persistence (E. coli C biofilm; Amp 70 (70 μg/mL)): 5.9 fold
IDR-1018 [reference compound]	–	–	–	–	–	smaller effect on biofilm destruction than on biofilm inhibition	planktonic growth lower than the untreated control ([1]; 10 μg/mL, FIG. 5A): 63%; biofilm lower than the untreated control ([1]; 10 μg/mL, FIG. 5B): 45%

From patent publication US11666555B2, “RelA inhibitors for biofilm disruption” (DREXEL UNIVERSITY, priority 2017, dated 2023)
